In patent US11926619B2, “Certain pladienolide compounds and methods of use” (EISAI R&D MANAGEMENT CO., LTD., priority 2018, dated 2024):
Read-outs that look alike come from different tables or passages of the source.

Key:
Type in all cases: cell-based
[1] = test system: WiDr cells (colon cancer cells; wildtype SF3B1); assay: Cell viability assay (CellTiter-Glo, 72 hr), WiDr cells; settings: Homo sapiens
Experimental: (§1) Cells (WiDr and Panc05.04 obtained from ATCC) were seeded in 96-well plates, with 2000 cells/100 μL/well, and incubated overnight. Spent media was removed, and fresh media containing 9 different concentrations of compound (100 μL/well) were added, with DMSO concentration from compound stock solution adjusted to be 0.1%. Each compound treatment was done in duplicate or triplicate at each concentration.
(§2) Another plate with cells seeded was dedicated as a time zero (Tz) plate, to which was added 0.1% DMSO in media (100 μL/well) followed by CellTiter-Glo® reagent (Promega Corporation, Madison, Wisconsin) (50 μL/well) for ATP measurement as a surrogate of cell viability. Average value from measurement of multiple wells of this plate is used as Tz. Compound-treated plates were incubated for 72 hr at 37° C. Then, CellTiter-Glo® reagent (50 μL/well) was added and ATP was measured. Average value from measurement of the duplicate or triplicate compound-treated wells is used as Ti, and seeded plates with medium having 0.1% DMSO without compound is used as control growth (C).
(§3) Percentage growth inhibition/Percentage viability was calculated as:
(§4) [(Ti−Tz)/(C−Tz)]×100 for concentrations for which Ti>/=Tz
(§5) [(Ti−Tz)/Tz]×100 for concentrations for which Ti<Tz.
(§6) *time zero (Tz), control growth (C), and test growth in the presence of compound (Ti) Percentage growth inhibition/Percentage viability are plotted versus compound concentration to determine Emax.
Emax refers to the maximum achievable response to a compound in a tested dose range, with a negative value indicating cellular lethality. A larger negative Emax value indicates greater cellular lethality for a particular compound. […]

[2] = test system: WiDr-R cells (colon cancer cells; chemically-induced SF3B1 R1074H mutant); assay: Cell viability assay (CellTiter-Glo, 72 hr), resistant WiDr-R cells (counter-screen); settings: WiDr-R cells (SF3B1 R1074H mutation, resistant); read-out: WiDr-R GI50
Experimental: as §1, §2, §3, §4, §5, §6
(§7) Emax refers to the maximum achievable response to a compound in a tested dose range, with a negative value indicating cellular lethality. A larger negative Emax value indicates greater cellular lethality for a particular compound.
The counter-screening of compounds in this viability assay with a “resistant” WiDr-R cell line may indicate whether these compounds have off-target effect(s).

[3] = test system: Panc 05.04 cells (pancreatic cancer cells; Q699H and K700E mutations in SF3B1); assay: Cell viability assay (CellTiter-Glo, 72 hr), Panc 05.04 cells; settings: for Emax: maximum achievable response in tested dose range, negative value = cellular lethality, read-out: Panc 05.04 (mt SF3B1 cells) Emax (%)
Experimental: as §1, §2, §3, §4, §5, §6, §7

[4] = WiDr cells (wildtype SF3B1), read-out: WiDr GI50
[5] = Panc 05.04 cells (mutant SF3B1)
[6] = Panc 05.04 cells (mutant SF3B1), read-out: Panc 05.04 (mt SF3B1 cells), GI50

Row | Compound | GI50 [1, 4] [nM] | GI50 [2] [nM] | Emax [3, 5] [%] | GI50 [3, 6] [nM] | also measured
1 | C/C(=C\C=C\[C@@H](C)COC(=O)N1CCC[C@H]1CF)[C@H]1OC(=O)C[C@H](O)CC[C@@](C)(O)[C@@H](OC(=O)N2CCN(C)CC2)/C=C/[C@@H]1C | 1.7 | > 1000 | -82.1 | 2.25 | –
2 | C/C(=C\C=C\[C@@H](C)COC(=O)N1CCCC1)[C@H]1OC(=O)C[C@H](O)CC[C@H](C)[C@@H](OC(=O)N2CCN(C3CCCCCC3)CC2)/C=C/[C@@H]1C | 8.39 | > 1000 | -90.9 | 10.8 | –
3 | CC(=O)O[C@H]1/C=C/[C@H](C)[C@@H](/C(C)=C/C=C/[C@@H](C)c2ccccn2)OC(=O)CCCCC1 | > 10000 | > 10000 | – | > 10000 | –
4 | C/C(=C\C=C\[C@@H](C)c1cccnc1)[C@H]1OC(=O)C[C@H](O)CC[C@@](C)(O)[C@@H](OC(=O)N2CCN(C3CCCCCC3)CC2)/C=C/[C@@H]1C (single isomer, unassigned) [Compound 159] | – | – | – | – | GI50 ([1]; WiDr cells, 72 hr, CellTiter-Glo, read-out: WiDr GI50): 13.3 nM; GI50 ([3]; Panc 05.04, Panc05.04 cells, 72 hr, CellTiter-Glo, read-out: Panc05.04 GI50): 15 nM
5 | CC[C@H](O)[C@@H](C)[C@H]1O[C@@H]1C[C@@](C)(O)/C=C/C=C(\C)[C@H]1OC(=O)C[C@H](O)CC[C@@](C)(OC)[C@@H](OC(=O)N(C)CCN(C)C)/C=C/[C@@H]1C | – | – | -64.4 | 3.48 | –
6 | CC(=O)O[C@H]1/C=C/[C@H](C)[C@@H](/C(C)=C/C=C/[C@](C)(O)CCc2ccccc2)OC(=O)C[C@H](O)CC[C@@]1(C)O | 167 | > 10000 | -55.4 | 314 | –
7 | CC(=O)O[C@H]1/C=C/[C@H](C)[C@@H](/C(C)=C/C=C/C(C)Cc2ccccn2)OC(=O)C[C@H](O)CC[C@@]1(C)O (stereo partly drawn) | 911 | > 10000 | 20.3 | 1670 | –
8 | C/C(=C\C=C\[C@@H](C)COC(=O)N1CC[C@@H](O)C1)[C@H]1OC(=O)CCCC[C@@](C)(O)[C@@H](OC(=O)N2CCN(C)CC2)/C=C/[C@@H]1C | 11.2 | > 1000 | -94.6 | 4.44 | –
9 | CC(=O)O[C@H]1/C=C/[C@H](C)[C@@H](/C(C)=C/C=C/C(C)(O)CCc2ccc(O)cc2)OC(=O)C[C@H](O)CC[C@@]1(C)O (stereo partly drawn) | – | – | -70.5 | 249 | –
10 | COCc1ccc(CCC(C)/C=C/C=C(\C)[C@H]2OC(=O)C[C@H](O)CC[C@@](C)(O)[C@@H](OC(C)=O)/C=C/[C@@H]2C)cc1 (stereo partly drawn) | – | – | -67.3 | 321 | –
11 | CC(=O)O[C@H]1/C=C/[C@H](C)[C@@H](/C(C)=C/C=C/C(C)CCc2ccccc2)OC(=O)C[C@H](O)CC[C@@]1(C)O (stereo partly drawn) | – | – | -26.4 | 827 | –
12 | CCOc1cccc(CCC(C)/C=C/C=C(\C)[C@H]2OC(=O)C[C@H](O)CC[C@@](C)(O)[C@@H](OC(C)=O)/C=C/[C@@H]2C)c1 (stereo partly drawn) | – | – | -32 | 508 | –
13 | CC[Si](CC)(CC)O[C@@H]1CCN(c2nccc(C(C)/C=C/C=C(\C)[C@H]3OC(=O)CCCCC[C@@H](OC(=O)N4CCN(C5CCCCCC5)CC4)/C=C/[C@@H]3C)n2)C1 (stereo partly drawn) | > 1000 | > 10000 | – | – | –
14 | C/C(=C\C=C\[C@@H](C)COC(=O)N1CC[C@@H](O)C1)[C@H]1OC(=O)CCCCC[C@@H](OC(=O)N(C)C)/C=C/[C@@H]1C | – | – | -83.7 | 139 | GI50 ([1]; WiDr, read-out: WiDr GI50 (nM)): 154 nM
15 | COCc1ccccc1CCC(C)/C=C/C=C(\C)[C@H]1OC(=O)C[C@H](O)CC[C@@](C)(O)[C@@H](OC(C)=O)/C=C/[C@@H]1C (stereo partly drawn) | – | – | -39.5 | 427 | –
16 | C/C(=C\C=C\C(C)c1cccnc1)[C@H]1OC(=O)C[C@H](O)CC[C@@](C)(O)[C@@H](OC(=O)N2CCC(N3CCC(F)CC3)CC2)/C=C/[C@@H]1C (stereo partly drawn) | – | – | 12.5 | 862 | –
17 | C/C(=C\C=C\[C@@H](C)CCC(=O)N1CCCC1)[C@H]1OC(=O)CC(O)CCC(C)(O)[C@@H](OC(=O)N2CCN(C)CC2)/C=C/[C@@H]1C (stereo in doubt) [Compound 1, [(2S,3S,4E,6S,7S,10S)-7,10-dihydroxy-3,7-dimethyl-2-[(2E,4E,6S)-6-methyl-9-oxo-9-pyrrolidin-1-ylnona-2,4-dien-2-yl]-12-oxo-1-oxacyclododec-4-en-6-yl] 4-methylpiperazine-1-carboxylate] | – | – | – | – | cellular lethality (Emax comparison) ([3]; Panc 05.04 cells, mutant SF3B1 cell line): greater cellular lethality than Compound 7
